Legend:
[1] = target: Cyclin-dependent kinase 15 (Homo sapiens) (UniProt Q96Q40); conditions: Compound concentration 100.0 nM
[2] = target: Angiopoietin-1 receptor (Homo sapiens) (UniProt Q02763); conditions: Compound concentration 100.0 nM
[3] = target: Tyrosine-protein kinase Fer (Homo sapiens) (UniProt P16591); conditions: Compound concentration 100.0 nM
[4] = target: Histamine H1 receptor (Homo sapiens) (UniProt P35367); conditions: Compound concentration 10.0 uM
[5] = target: Serine/threonine-protein kinase 38 (Homo sapiens) (UniProt Q15208); conditions: Compound concentration 100.0 nM
[6] = target: MAP/microtubule affinity-regulating kinase 3 (Homo sapiens) (UniProt P27448); conditions: Compound concentration 100.0 nM
[7] = target: Serine/threonine-protein kinase RIO2 (Homo sapiens) (UniProt Q9BVS4); conditions: Compound concentration 100.0 nM
Chain of Serine/threonine-protein kinase RIO2 (Homo sapiens) (Q9BVS4 whole entry, looked up): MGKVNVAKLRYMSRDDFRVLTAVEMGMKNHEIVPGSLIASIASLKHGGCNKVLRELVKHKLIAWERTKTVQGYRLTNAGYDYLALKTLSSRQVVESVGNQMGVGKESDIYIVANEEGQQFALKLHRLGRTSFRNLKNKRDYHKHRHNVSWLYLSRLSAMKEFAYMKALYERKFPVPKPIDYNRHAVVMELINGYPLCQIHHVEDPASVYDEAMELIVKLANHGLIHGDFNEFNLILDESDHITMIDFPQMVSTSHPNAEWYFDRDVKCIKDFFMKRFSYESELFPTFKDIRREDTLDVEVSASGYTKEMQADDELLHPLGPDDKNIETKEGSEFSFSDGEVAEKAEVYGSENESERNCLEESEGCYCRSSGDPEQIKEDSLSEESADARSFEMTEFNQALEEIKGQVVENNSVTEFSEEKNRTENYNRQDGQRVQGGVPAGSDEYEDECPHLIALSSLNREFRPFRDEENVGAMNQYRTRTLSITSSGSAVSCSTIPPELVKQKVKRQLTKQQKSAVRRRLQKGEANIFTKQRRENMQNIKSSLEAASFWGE

[8] = test system: ALK tyrosine kinase receptor (Homo sapiens), Q9UM73 [L1196M]; conditions: Compound concentration 100.0 nM
[9] = target: Macrophage colony-stimulating factor 1 receptor (Homo sapiens) (UniProt P07333); conditions: Compound concentration 100.0 nM
[10] = target: Aurora kinase B (Homo sapiens) (UniProt Q96GD4); conditions: Compound concentration 100.0 nM
[11] = target: Serine/threonine-protein kinase OSR1 (Homo sapiens) (UniProt O95747); conditions: Compound concentration 100.0 nM
[12] = test system: Tyrosine-protein kinase ABL1 (Homo sapiens), P00519 [Q252H]; conditions: Compound concentration 100.0 nM
[13] = target: Beta-2 adrenergic receptor (Homo sapiens) (UniProt P07550); conditions: Compound concentration 10.0 uM
[14] = target: 5-hydroxytryptamine receptor 1D (Homo sapiens) (UniProt P28221); conditions: Compound concentration 10.0 uM
[15] = target: Serine/threonine-protein kinase 32B (Homo sapiens) (UniProt Q9NY57); conditions: Compound concentration 100.0 nM
[16] = target: Casein kinase I isoform alpha (Homo sapiens) (UniProt P48729); conditions: Compound concentration 100.0 nM
Chain of Casein kinase I isoform alpha (Homo sapiens) (P48729 2-337 limits assumed): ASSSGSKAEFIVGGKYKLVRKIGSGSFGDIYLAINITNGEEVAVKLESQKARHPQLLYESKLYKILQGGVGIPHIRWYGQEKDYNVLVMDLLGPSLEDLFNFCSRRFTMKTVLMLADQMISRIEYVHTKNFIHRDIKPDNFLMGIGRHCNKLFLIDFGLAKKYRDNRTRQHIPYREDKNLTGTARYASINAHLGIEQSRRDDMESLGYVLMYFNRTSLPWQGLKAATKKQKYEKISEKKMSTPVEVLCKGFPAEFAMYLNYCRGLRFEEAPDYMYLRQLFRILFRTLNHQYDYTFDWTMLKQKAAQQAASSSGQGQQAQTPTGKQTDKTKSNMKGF

[17] = target: Fibroblast growth factor receptor 3 (Homo sapiens) (UniProt P22607); conditions: Compound concentration 100.0 nM
[18] = target: 5-hydroxytryptamine receptor 5A (Homo sapiens) (UniProt P47898); conditions: Compound concentration 10.0 uM
[19] = target: Platelet-derived growth factor receptor alpha (Homo sapiens) (UniProt P16234); conditions: Compound concentration 100.0 nM
Chain of Platelet-derived growth factor receptor alpha (Homo sapiens) (P16234 whole entry): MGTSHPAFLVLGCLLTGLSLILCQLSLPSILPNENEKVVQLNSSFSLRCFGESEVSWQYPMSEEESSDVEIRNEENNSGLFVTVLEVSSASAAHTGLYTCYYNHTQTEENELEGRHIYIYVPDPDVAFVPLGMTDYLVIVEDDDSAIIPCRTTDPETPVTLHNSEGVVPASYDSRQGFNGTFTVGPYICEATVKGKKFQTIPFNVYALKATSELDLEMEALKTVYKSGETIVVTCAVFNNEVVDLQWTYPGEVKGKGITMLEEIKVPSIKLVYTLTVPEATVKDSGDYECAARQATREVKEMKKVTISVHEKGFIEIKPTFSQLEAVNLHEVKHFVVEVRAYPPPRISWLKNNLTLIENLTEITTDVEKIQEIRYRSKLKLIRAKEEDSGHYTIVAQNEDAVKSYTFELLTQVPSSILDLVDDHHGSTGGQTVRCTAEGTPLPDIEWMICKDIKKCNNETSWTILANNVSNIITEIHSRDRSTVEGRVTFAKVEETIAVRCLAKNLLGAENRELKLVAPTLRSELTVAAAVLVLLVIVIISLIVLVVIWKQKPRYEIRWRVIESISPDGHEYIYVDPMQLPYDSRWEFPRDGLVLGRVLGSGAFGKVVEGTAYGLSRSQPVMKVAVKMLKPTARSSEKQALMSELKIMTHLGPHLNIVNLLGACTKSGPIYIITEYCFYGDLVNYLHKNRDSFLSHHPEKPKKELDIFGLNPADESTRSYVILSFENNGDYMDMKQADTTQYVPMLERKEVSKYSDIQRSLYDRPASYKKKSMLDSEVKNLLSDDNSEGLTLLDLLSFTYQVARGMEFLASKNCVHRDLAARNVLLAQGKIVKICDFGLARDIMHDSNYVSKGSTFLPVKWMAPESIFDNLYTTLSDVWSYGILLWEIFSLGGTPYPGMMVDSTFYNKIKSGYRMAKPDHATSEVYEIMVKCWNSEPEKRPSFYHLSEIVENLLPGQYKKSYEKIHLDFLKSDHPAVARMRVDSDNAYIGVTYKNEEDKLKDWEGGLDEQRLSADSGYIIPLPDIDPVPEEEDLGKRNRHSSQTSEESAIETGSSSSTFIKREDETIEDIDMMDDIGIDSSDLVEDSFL

[20] = target: RAF proto-oncogene serine/threonine-protein kinase (Homo sapiens) (UniProt P04049); conditions: Compound concentration 100.0 nM
[21] = test system: Receptor-type tyrosine-protein kinase FLT3 (Homo sapiens), P36888 [K663Q]; conditions: Compound concentration 100.0 nM
[22] = target: Phosphorylase b kinase regulatory subunit alpha, liver isoform (Homo sapiens) (UniProt P46019); conditions: Compound concentration 100.0 nM
Chain of Phosphorylase b kinase regulatory subunit alpha, liver isoform (Homo sapiens) (P46019 whole entry, canonical isoform): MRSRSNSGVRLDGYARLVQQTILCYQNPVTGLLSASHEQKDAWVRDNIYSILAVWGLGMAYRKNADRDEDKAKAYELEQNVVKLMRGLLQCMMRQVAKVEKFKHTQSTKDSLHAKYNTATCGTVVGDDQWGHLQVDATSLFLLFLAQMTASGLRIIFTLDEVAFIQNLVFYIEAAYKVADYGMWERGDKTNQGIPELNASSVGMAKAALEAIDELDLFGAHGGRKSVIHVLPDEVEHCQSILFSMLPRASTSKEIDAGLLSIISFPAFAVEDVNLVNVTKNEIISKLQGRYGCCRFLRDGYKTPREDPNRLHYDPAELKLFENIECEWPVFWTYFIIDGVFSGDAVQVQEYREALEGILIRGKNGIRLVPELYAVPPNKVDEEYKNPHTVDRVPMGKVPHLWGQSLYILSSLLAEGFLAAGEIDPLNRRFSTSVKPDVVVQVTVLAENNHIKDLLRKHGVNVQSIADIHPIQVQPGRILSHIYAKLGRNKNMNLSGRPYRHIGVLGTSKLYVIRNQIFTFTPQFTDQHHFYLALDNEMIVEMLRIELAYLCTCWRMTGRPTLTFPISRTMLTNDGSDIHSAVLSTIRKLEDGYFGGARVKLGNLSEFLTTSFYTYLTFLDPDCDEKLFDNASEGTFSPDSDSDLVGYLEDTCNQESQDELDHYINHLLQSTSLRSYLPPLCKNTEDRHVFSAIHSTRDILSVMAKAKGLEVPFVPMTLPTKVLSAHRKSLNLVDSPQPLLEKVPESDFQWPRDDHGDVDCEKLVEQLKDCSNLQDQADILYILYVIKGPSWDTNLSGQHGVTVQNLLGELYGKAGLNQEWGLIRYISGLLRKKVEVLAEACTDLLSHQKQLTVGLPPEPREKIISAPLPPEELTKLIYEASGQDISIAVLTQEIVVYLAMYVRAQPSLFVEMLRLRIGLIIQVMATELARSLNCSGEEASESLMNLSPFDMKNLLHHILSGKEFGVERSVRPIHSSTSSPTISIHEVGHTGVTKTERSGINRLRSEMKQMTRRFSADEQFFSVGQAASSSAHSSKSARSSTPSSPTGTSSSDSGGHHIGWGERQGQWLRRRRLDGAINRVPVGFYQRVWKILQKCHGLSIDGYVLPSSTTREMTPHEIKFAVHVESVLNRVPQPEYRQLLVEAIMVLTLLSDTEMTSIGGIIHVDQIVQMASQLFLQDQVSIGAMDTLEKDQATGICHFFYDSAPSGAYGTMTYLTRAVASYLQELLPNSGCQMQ

[23] = target: Casein kinase I isoform delta (Homo sapiens) (UniProt P48730); conditions: Compound concentration 100.0 nM
Chain of Casein kinase I isoform delta (Homo sapiens) (P48730 whole entry, looked up, canonical isoform): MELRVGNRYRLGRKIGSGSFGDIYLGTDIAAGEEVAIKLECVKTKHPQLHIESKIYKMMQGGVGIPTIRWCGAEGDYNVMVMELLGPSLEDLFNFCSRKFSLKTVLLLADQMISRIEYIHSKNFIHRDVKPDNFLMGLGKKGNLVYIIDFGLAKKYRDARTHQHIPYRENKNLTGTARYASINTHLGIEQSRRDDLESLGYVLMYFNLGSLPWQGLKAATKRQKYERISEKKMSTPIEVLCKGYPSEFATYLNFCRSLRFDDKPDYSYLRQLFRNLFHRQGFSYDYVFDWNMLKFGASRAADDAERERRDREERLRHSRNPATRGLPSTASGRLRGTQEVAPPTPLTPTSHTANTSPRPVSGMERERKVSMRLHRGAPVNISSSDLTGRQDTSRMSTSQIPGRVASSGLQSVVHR

[24] = target: Calcium/calmodulin-dependent protein kinase type II subunit alpha (Homo sapiens) (UniProt Q9UQM7); conditions: Compound concentration 100.0 nM
Chain of Calcium/calmodulin-dependent protein kinase type II subunit alpha (Homo sapiens) (Q9UQM7 whole entry): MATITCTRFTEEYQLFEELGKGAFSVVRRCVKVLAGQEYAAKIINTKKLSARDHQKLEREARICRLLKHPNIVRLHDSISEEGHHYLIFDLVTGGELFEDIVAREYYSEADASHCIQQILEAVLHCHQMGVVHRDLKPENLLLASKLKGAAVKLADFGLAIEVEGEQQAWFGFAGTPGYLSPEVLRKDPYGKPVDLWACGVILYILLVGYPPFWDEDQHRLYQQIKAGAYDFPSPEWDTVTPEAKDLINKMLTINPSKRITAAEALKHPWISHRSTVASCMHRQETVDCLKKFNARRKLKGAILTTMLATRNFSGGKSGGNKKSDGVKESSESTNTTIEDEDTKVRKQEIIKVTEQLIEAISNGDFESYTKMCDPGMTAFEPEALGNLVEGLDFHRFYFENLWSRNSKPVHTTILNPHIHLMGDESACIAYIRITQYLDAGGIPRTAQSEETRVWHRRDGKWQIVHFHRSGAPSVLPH

[25] = target: Inhibitor of nuclear factor kappa-B kinase subunit alpha (Homo sapiens) (UniProt O15111); conditions: Compound concentration 100.0 nM
[26] = test system: Mast/stem cell growth factor receptor Kit (Homo sapiens), P10721 [V559D,V654A]; conditions: Compound concentration 100.0 nM
[27] = target: T1, Tyrosine-protein kinase ZAP-70 (Homo sapiens) (UniProt P43403); conditions: Compound concentration 100.0 nM
T1 sequence (whole entry): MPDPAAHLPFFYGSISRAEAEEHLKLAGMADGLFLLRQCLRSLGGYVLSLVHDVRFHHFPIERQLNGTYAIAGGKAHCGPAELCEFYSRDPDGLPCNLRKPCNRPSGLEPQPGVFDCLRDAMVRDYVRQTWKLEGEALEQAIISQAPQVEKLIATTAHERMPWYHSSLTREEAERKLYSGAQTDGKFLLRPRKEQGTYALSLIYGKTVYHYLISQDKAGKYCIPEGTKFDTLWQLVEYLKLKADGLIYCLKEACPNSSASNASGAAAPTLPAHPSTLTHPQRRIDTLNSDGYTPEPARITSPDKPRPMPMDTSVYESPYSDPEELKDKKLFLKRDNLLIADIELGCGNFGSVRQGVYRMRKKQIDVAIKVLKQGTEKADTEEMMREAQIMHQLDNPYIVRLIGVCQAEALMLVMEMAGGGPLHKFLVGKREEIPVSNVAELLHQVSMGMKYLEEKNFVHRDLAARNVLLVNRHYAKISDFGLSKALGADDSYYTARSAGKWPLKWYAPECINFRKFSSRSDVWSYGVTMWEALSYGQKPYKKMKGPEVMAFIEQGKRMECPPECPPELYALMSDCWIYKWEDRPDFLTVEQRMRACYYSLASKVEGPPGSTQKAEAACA

[28] = target: Myosin light chain kinase family member 4 (Homo sapiens) (UniProt Q86YV6); conditions: Compound concentration 100.0 nM
Chain of Myosin light chain kinase family member 4 (Homo sapiens) (Q86YV6 whole entry): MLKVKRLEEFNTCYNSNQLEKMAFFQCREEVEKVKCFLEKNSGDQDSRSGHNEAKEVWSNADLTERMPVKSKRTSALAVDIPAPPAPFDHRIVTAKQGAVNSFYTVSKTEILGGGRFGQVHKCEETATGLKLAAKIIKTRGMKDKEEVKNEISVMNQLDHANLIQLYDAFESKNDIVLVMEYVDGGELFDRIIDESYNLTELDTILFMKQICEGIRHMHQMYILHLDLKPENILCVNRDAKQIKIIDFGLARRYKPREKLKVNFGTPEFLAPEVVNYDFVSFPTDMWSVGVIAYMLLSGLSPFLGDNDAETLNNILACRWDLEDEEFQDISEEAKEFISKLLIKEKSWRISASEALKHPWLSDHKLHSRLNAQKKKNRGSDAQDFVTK

[29] = target: Tyrosine-protein kinase Lck (Homo sapiens) (UniProt P06239); conditions: Compound concentration 100.0 nM
[30] = target: Mitogen-activated protein kinase kinase kinase 19 (Homo sapiens) (UniProt Q56UN5); conditions: Compound concentration 100.0 nM
[31] = target: T2, Calcium/calmodulin-dependent protein kinase type IV (Homo sapiens) (UniProt Q16566); conditions: Compound concentration 100.0 nM
T2 sequence (whole entry): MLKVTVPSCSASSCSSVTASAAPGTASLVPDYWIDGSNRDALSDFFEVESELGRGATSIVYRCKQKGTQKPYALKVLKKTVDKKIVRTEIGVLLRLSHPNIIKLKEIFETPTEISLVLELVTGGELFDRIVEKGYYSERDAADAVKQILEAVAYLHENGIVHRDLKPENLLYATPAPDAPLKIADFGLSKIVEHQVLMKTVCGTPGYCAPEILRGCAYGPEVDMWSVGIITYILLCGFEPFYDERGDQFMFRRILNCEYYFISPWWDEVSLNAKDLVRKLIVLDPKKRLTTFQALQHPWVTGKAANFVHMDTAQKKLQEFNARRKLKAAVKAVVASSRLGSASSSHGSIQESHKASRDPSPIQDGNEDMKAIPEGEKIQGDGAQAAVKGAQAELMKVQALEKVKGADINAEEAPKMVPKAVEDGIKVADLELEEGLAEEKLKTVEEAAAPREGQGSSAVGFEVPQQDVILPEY

Chain of Histamine H1 receptor (Homo sapiens) (P35367 whole entry): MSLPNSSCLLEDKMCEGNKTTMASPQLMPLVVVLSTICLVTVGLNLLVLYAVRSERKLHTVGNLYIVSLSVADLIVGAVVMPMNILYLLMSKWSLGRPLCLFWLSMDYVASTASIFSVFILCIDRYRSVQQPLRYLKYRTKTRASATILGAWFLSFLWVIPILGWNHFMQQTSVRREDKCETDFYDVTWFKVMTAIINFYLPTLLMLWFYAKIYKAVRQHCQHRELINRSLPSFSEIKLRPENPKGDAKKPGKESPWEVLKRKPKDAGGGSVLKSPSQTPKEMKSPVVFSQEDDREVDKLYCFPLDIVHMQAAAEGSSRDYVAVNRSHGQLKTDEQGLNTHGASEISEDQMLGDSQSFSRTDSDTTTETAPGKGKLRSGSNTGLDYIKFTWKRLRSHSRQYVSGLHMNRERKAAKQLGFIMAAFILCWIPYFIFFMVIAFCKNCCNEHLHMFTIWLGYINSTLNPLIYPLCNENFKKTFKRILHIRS

Cn1cc(Cl)c2c(Oc3c(F)cc(Nc4cc(Cl)nc(N)n4)cc3F)ccnc21 [BAY-4900]
inactive: residual activity [1] 94% | residual activity [2] 100% | residual activity [3] 100% | inhibition [4] 3.19% | residual activity [5] 87% | residual activity [6] 83% | residual activity [7] 100% | residual activity [8] 100% | residual activity [9] 93% | residual activity [10] 78% | residual activity [11] 93% | residual activity [12] 94% | inhibition [13] 10.2% | inhibition [14] -5.84% | residual activity [15] 99% | residual activity [16] 93% | residual activity [17] 99% | inhibition [18] 0.35% | residual activity [19] 98% | residual activity [20] 91% | residual activity [21] 100% | residual activity [22] 100% | residual activity [23] 100% | residual activity [24] 82% | residual activity [25] 85% | residual activity [26] 90% | residual activity [27] 100% | residual activity [28] 91% | residual activity [29] 100% | residual activity [30] 75% | residual activity [31] 96%

Cc1c[nH]c2nccc(Oc3c(F)cc(Nc4cc(Cl)nc(N)n4)cc3F)c12 [BAY-549]
inactive: residual activity [1] 76% | residual activity [2] 95% | residual activity [3] 100% | inhibition [4] -0.06% | residual activity [5] 89% | residual activity [6] 74% | residual activity [7] 85% | residual activity [8] 99% | residual activity [9] 100% | residual activity [10] 82% | residual activity [11] 92% | residual activity [12] 91% | inhibition [13] -7.12% | inhibition [14] 45% | residual activity [15] 71% | residual activity [16] 96% | residual activity [17] 100% | inhibition [18] -9.86% | residual activity [19] 84% | residual activity [20] 75% | residual activity [21] 87% | residual activity [22] 89% | residual activity [23] 100% | residual activity [24] 70% | residual activity [25] 66% | residual activity [26] 94% | residual activity [27] 100% | residual activity [28] 100% | residual activity [29] 100% | residual activity [30] 74% | residual activity [31] 100%

From ChEMBL document CHEMBL4507274 (2021)
